Experimental data from patent US8686178B2, “Derivative of 18β-glycyrrhetinic acid apt to suppress cancer cells” (Kaohsiung Medical University, priority 2011, dated 2014).

What was measured:
[1] = tested on: human prostate cancer cell line PC3; assay: Trial (B): MTT cytotoxicity assay, 72 hours; assay type: cell-based; settings: 0-50 μM
From the text: (§1) For the sake of proving therapeutic effects of the derivatives of 18β-glycyrrhetinic acid of the present invention, including 10, 11, 13-17 and 21-25, in treating of cancer, human bladder cancer cell line NTUB1, human prostate cancer cell line PC3 cataloged as CRL-1435 (reference to J. Formosan Med. Assoc. 1992; 91:608-13), and immortalized normal human urothelial cells SV-HUC1 cataloged as CRL-9520 are purchased from American Type Culture Collection (ATCC; Rockville, USA) and maintained in a culturing medium respectively till at a preferable density to carry out a serial of trials (comprising trial A to G) for evaluating cytotoxicities of the derivatives of 18β-glycyrrhetinic acid against cancer cells, and mechanisms thereof. […]
(§2) In trial (B), the cell lines of NTUB1, PC3, and SV-HUC1 are prepared in 96-well plates and co-incubated with the compounds 21, 23 or 25 in various concentrations of 0, 0.3, 1, 3, 5, 10, 30 and 50 μM, to analyze cytotoxic effects against either cancer cell or normal cells via a modified 3-[4,5-dimethylthiazol-2-yl]-2,5-diphenyltetrazolium bromide (MTT, Sigma Chemical Co.) assay. […] At co-incubation, 50 μL of MTT (2 mg/mL in PB) is added to each well to react for 3 hours, followed by centrifugating the 96-well plates at 1000 g for 10 min to remove supernatant, adding 150 μL DMSO in each well of the 96-well plates, and determining viability rates of the NTUB1, PC3, and SV-HUC1 cells separately by an absorbance spectrometry at 540 nm with a MRX (DYNEXCO) microplate reader.

NTUB1 cells = assay: Trial (E): cell cycle progression by flow cytometry (propidium iodide); assay type: cell-based, human; set-up: Sub-G1 / G1: unit not given here; settings: for G1 / G2/M / S / Sub-G1: 24 hours
Description: In order to determine a relationship between the derivatives of 18β-glycyrrhetinic acid of the present invention and cell cycle arrest, trial (E) is carried out by analyzing cell cycle progression by flow cytometry. […] After that, cell cycle progression of each group is determined respectively by incubating with 50 μg/mL propidium iodide (Sigma, Co) and 50 μg/mL RNase A (Sigma, Co) in PBS at room temperature for 30 min, and analyzing by FACScan flow cytometer and Cell Quest sofeware.

p-p53 (Ser15) = assay: Trial (G): expression of p53 / p-p53 by Western blot; assay type: cell-based, human; settings: 10, 25, 50 μM, 24 hours, NTUB1
Description: In trial (G), expression of p53 is monitored via Western blot analysis in accordance with a journal article published by Son et al., at 2010 in Toxicol. Appl. Pharmacol., in which overproduction ROS induced p53 suppression is observed.
Referring to TABLE 7, the NTUB1 cells at a density of 8×10^5 cells/ml are prepared and assigned into 9 groups, including G1-1 to G1-5 and G2-1 to G2-4, to incubate in various medium for 24 hours, followed by harvesting in trypsinization, resuspending in PBS till at a suitable density and collecting the NTUB1 cells of each group respectively.
Next, the NTUB1 cells of each group are further diluted with equal volume of 2× sample buffer, boiled for 10 minutes twice to denature protein therein, and analyzed by SDS-PAGE. After that, proteins on SDS-PAGE datum are transferred to nitrocellulose membranes (Millipore, Billerica, Mass., USA) using a semi-dry blotter, followed by blocking with 5% (w/v) skimmed milk in TBST buffer (100 mM Tris-HCl (pH 7.5), 150 mM NaCl and 0.1% Tween-20), incubating with specific antibodies [including antibodies specific for b-acctin (NB600-501), p-p53 (Ser15) (9284) and p53 (DO1)]. at 4° C. overnight, washing with TBST buffer again and incubated with secondary antibody at room temperature. Finally, western data of each group are visualized on Fuji SuperRX film. […]

[2] = tested on: human bladder cancer cell line NTUB1; assay: Trial (A): cytotoxic effect, IC50 by median-effect analysis; assay type: cell-based; settings: NTUB1 cells
From the text: For the sake of proving therapeutic effects of the derivatives of 18β-glycyrrhetinic acid of the present invention, including 10, 11, 13-17 and 21-25, in treating of cancer, human bladder cancer cell line NTUB1, human prostate cancer cell line PC3 cataloged as CRL-1435 (reference to J. Formosan Med. Assoc. 1992; 91:608-13), and immortalized normal human urothelial cells SV-HUC1 cataloged as CRL-9520 are purchased from American Type Culture Collection (ATCC; Rockville, USA) and maintained in a culturing medium respectively till at a preferable density to carry out a serial of trials (comprising trial A to G) for evaluating cytotoxicities of the derivatives of 18β-glycyrrhetinic acid against cancer cells, and mechanisms thereof.
In the present invention, the NTUB1 and the PC3 is but not limit to be maintained in RPMI 1640 medium supplemented 10% fetal bovine serum (FBS), 100 unit/mL penicillin-G, 100 μg/mL streptomycin, and 2 mM L-glutamine, yet the SV-HUC1 is maintained in F12 medium supplemented with 10% fetal bovine serum (FBS), 100 unit/mL penicillin-G, 100 μg/mL streptomycin, and 2 mM L-glutamine, culturing at 37° C. in a humidified atmosphere containing 5% CO2 till at a density of 70% per well, followed by repeatedly suspending cells in each well with an ethylene diamine tetra-acetic acid buffer (EDTA buffer; Merck) and counting cell numbers.
In the present invention, the IC50 values of each group are presented as mean±standard deviation (SD).

[3] = tested on: immortalized normal human urothelial cells SV-HUC1; assay: Trial (B): MTT assay on normal cells, 72 hours; assay type: cell-based; settings: 0-50 μM
From the text: as §1, §2

NTUB1 = assay: Trial (B): MTT cytotoxicity assay, 72 hours; assay type: cell-based, human; settings: 0-50 μM
From the text: as §1, §2

## C=C(C)[C@@H]1CC[C@]2(C)[C@H](C(=O)C=C3[C@@H]4C[C@@](C)(C(=O)NC(C)C)CC[C@]4(C)CC[C@]32C)[C@@]1(C)CCC(=O)NC(C)C [Compound 25, 3,4-seco-11-oxo-18β-olean-4(23),12-dien-3,30-diisopropyl carbamate]
[1]
  cytotoxic effect (survival ratio, FIGS. 4-6): cytotoxic effects against to the cancer cells in a dose-dependent manner
NTUB1 cells; 25 μM, NTUB1
  G1: 49.51
  G2/M: 12.68
  S: 12.69
  Sub-G1: 20.39
NTUB1 cells; 50 μM, NTUB1
  G1: 35.72
  G2/M: 5.22
  S: 3.15
  Sub-G1: 55.71
NTUB1 cells; 75 μM, NTUB1
  G1: 14.69
  G2/M: 4.00
  S: 2.79
  Sub-G1: 78.39
NTUB1 cells; 25, 50 and 75 μM, NTUB1
  cell cycle arrest: does not induce cell cycle arrest
  population of sub-G1 phase: induce the population of sub-G1 phase to cancer cells in dose-dependent manner
NTUB1 cells; NTUB1 exposed to compound
  S phase cells: a decrease of S phase cells
p-p53 (Ser15)
  levels of p-p53 (Western blot, FIGS. 9, 10): increase levels of p-p53 in a dose-dependent manner
[2]; with reference to TABLE 2
  cytotoxic effect against cancer cell: significantly suppress the growth of cancer cells with a lower concentrate
[2]; mean ± SD
  IC50: 4.76 ± 1.15 µM
[3]
  effect on growth of normal cells (survival ratio, FIGS. 4-6): enhance the growth of SV-HUC1 cells
NTUB1
  cytotoxic effect (survival ratio, FIGS. 4-6): cytotoxic effects against to the cancer cells in a dose-dependent manner, particularly in against to NTUB1 cell
